Measured values taken from PubChem BioAssay (NCI).
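Growth conditions: 96-well plates. Treatment: test compound, 48 hours, 5 concentrations. Analysis: linear interpolation between bracketing concentrations; unreached endpoints set to highest concentration. GI50 = concentration required for 50% inhibition of growth. At the TGI there is no net growth.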

How the values were obtained:
Assay in all cases: NCI tumour cell line growth inhibition, 48 h
SF-539 CNS = tested on: SF-539 CNS
UACC-257 melanoma = tested on: UACC-257 melanoma
A498 renal = tested on: A498 renal
UACC-62 melanoma = tested on: UACC-62 melanoma
K-562 leukemia = tested on: K-562 leukemia
DU-145 prostate = tested on: DU-145 prostate
OVCAR-8 ovarian = tested on: OVCAR-8 ovarian
SF-268 CNS = tested on: SF-268 CNS
SW-620 colon = tested on: SW-620 colon
U251 CNS = tested on: U251 CNS
OVCAR-5 ovarian = tested on: OVCAR-5 ovarian
TK-10 renal = tested on: TK-10 renal
COLO 205 colon = tested on: COLO 205 colon
A549 NSCLC = tested on: A549 NSCLC
RXF 393 renal = tested on: RXF 393 renal
RPMI-8226 leukemia = tested on: RPMI-8226 leukemia
HCT-116 colon = tested on: HCT-116 colon
UO-31 renal = tested on: UO-31 renal
HCC-2998 colon = tested on: HCC-2998 colon
EKVX NSCLC = tested on: EKVX NSCLC
CAKI-1 renal = tested on: CAKI-1 renal
IGROV1 ovarian = tested on: IGROV1 ovarian
SNB-75 CNS = tested on: SNB-75 CNS
LOX IMVI melanoma = tested on: LOX IMVI melanoma
MALME-3M melanoma = tested on: MALME-3M melanoma
SN12C renal = tested on: SN12C renal
NCI-H522 lung = tested on: NCI-H522 lung
HOP-92 NSCLC = tested on: HOP-92 NSCLC
NCI-H460 lung = tested on: NCI-H460 lung
SK-OV-3 ovarian = tested on: SK-OV-3 ovarian
OVCAR-3 ovarian = tested on: OVCAR-3 ovarian
MDA-MB-231 breast = tested on: MDA-MB-231 breast
HS 578T breast = tested on: HS 578T breast
NCI-H226 lung = tested on: NCI-H226 lung
HCT-15 colon = tested on: HCT-15 colon
HOP-62 NSCLC = tested on: HOP-62 NSCLC
786-0 renal = tested on: 786-0 renal
SF-295 CNS = tested on: SF-295 CNS
ACHN renal = tested on: ACHN renal
T-47D breast = tested on: T-47D breast
MDA-MB-435 = tested on: MDA-MB-435
M14 melanoma = tested on: M14 melanoma
BT-549 breast = tested on: BT-549 breast
NCI/ADR-RES ovarian = tested on: NCI/ADR-RES ovarian
PC-3 prostate = tested on: PC-3 prostate
SK-MEL-5 melanoma = tested on: SK-MEL-5 melanoma
OVCAR-4 ovarian = tested on: OVCAR-4 ovarian
SK-MEL-2 melanoma = tested on: SK-MEL-2 melanoma
MCF7 breast = tested on: MCF7 breast
SNB-19 CNS = tested on: SNB-19 CNS
CCRF-CEM leukemia = tested on: CCRF-CEM leukemia
HL-60(TB) leukemia = tested on: HL-60(TB) leukemia
KM12 colon = tested on: KM12 colon
NCI-H23 lung = tested on: NCI-H23 lung

With `Clc1ccc(Cc2nc3cc4ccccc4cc3[nH]2)cc1` the GI50 (SF-539 CNS) was 3.08 µM, the TGI (SF-539 CNS) was 81.1 µM and the GI50 (UACC-257 melanoma) was > 100 µM. The TGI (UACC-257 melanoma) was > 100 µM, the GI50 (A498 renal) was 21.7 µM and the TGI (A498 renal) was > 100 µM. The GI50 (UACC-62 melanoma) was 73.5 µM, the TGI (UACC-62 melanoma) was > 100 µM and the GI50 (K-562 leukemia) was 50.8 µM. The TGI (K-562 leukemia) was > 100 µM, the GI50 (DU-145 prostate) was 17.1 µM and the TGI (DU-145 prostate) was > 100 µM. It also gave a GI50 (OVCAR-8 ovarian) of 7.92 µM, a TGI (OVCAR-8 ovarian) of 37.1 µM and a GI50 (SF-268 CNS) of 10.9 µM. The TGI (SF-268 CNS) was 75.7 µM, the GI50 (SW-620 colon) was 6.55 µM and the TGI (SW-620 colon) was > 100 µM. The GI50 (U251 CNS) was 10.5 µM, the TGI (U251 CNS) was 29.6 µM and the GI50 (OVCAR-5 ovarian) was 26.3 µM. The TGI (OVCAR-5 ovarian) was > 100 µM, the GI50 (TK-10 renal) was 10.6 µM and the TGI (TK-10 renal) was 38.4 µM. The GI50 (COLO 205 colon) was 8.64 µM, the TGI (COLO 205 colon) was > 100 µM and the GI50 (A549 NSCLC) was 6.83 µM. For the same compound, the TGI (A549 NSCLC) was > 100 µM, the GI50 (RXF 393 renal) was > 100 µM and the TGI (RXF 393 renal) was > 100 µM. The GI50 (RPMI-8226 leukemia) was 9.77 µM, the TGI (RPMI-8226 leukemia) was > 100 µM and the GI50 (HCT-116 colon) was 5.06 µM. For the same compound, the TGI (HCT-116 colon) was 20.6 µM, the GI50 (UO-31 renal) was 54.1 µM and the TGI (UO-31 renal) was > 100 µM. The GI50 (HCC-2998 colon) was 15.8 µM, the TGI (HCC-2998 colon) was 89.5 µM and the GI50 (EKVX NSCLC) was 26.9 µM. The TGI (EKVX NSCLC) was > 100 µM, the GI50 (CAKI-1 renal) was 6.55 µM and the TGI (CAKI-1 renal) was 69.9 µM. The GI50 (IGROV1 ovarian) was 26 µM, the TGI (IGROV1 ovarian) was > 100 µM and the GI50 (SNB-75 CNS) was > 100 µM. The TGI (SNB-75 CNS) was > 100 µM, the GI50 (LOX IMVI melanoma) was 13.2 µM and the TGI (LOX IMVI melanoma) was > 100 µM. For the same compound, the GI50 (MALME-3M melanoma) was 26.8 µM, the TGI (MALME-3M melanoma) was > 100 µM and the GI50 (SN12C renal) was 94.8 µM. For the same compound, the TGI (SN12C renal) was > 100 µM, the GI50 (NCI-H522 lung) was 82 µM and the TGI (NCI-H522 lung) was > 100 µM. The GI50 (HOP-92 NSCLC) was 19.5 µM, the TGI (HOP-92 NSCLC) was > 100 µM and the GI50 (NCI-H460 lung) was 2.22 µM. For the same compound, the TGI (NCI-H460 lung) was > 100 µM, the GI50 (SK-OV-3 ovarian) was 14.7 µM and the TGI (SK-OV-3 ovarian) was 83.3 µM. For the same compound, the GI50 (OVCAR-3 ovarian) was 14.4 µM, the TGI (OVCAR-3 ovarian) was > 100 µM and the GI50 (MDA-MB-231 breast) was 25.4 µM. The TGI (MDA-MB-231 breast) was 96.1 µM, the GI50 (HS 578T breast) was 12.4 µM and the TGI (HS 578T breast) was 67.7 µM. For the same compound, the GI50 (NCI-H226 lung) was 30.1 µM, the TGI (NCI-H226 lung) was > 100 µM and the GI50 (HCT-15 colon) was 5.33 µM. For the same compound, the TGI (HCT-15 colon) was 26.4 µM, the GI50 (HOP-62 NSCLC) was 10.2 µM and the TGI (HOP-62 NSCLC) was 30.8 µM. It also gave a GI50 (786-0 renal) of 8.99 µM, a TGI (786-0 renal) of 43.2 µM and a GI50 (SF-295 CNS) of 3.08 µM. It also gave a TGI (SF-295 CNS) of 30 µM, a GI50 (ACHN renal) of 18.8 µM and a TGI (ACHN renal) of 57.7 µM. For the same compound, the GI50 (T-47D breast) was 23.1 µM, the TGI (T-47D breast) was 88.6 µM and the GI50 (MDA-MB-435) was 27.8 µM. The TGI (MDA-MB-435) was > 100 µM, the GI50 (M14 melanoma) was 53.1 µM and the TGI (M14 melanoma) was > 100 µM. For the same compound, the GI50 (BT-549 breast) was 14.1 µM, the TGI (BT-549 breast) was > 100 µM and the GI50 (NCI/ADR-RES ovarian) was 22.9 µM. The TGI (NCI/ADR-RES ovarian) was > 100 µM, the GI50 (PC-3 prostate) was 7.12 µM and the TGI (PC-3 prostate) was > 100 µM. For the same compound, the GI50 (SK-MEL-5 melanoma) was 3.17 µM, the TGI (SK-MEL-5 melanoma) was > 100 µM and the GI50 (OVCAR-4 ovarian) was 22.7 µM. For the same compound, the TGI (OVCAR-4 ovarian) was > 100 µM, the GI50 (SK-MEL-2 melanoma) was > 100 µM and the TGI (SK-MEL-2 melanoma) was > 100 µM. For the same compound, the GI50 (MCF7 breast) was 17.1 µM, the TGI (MCF7 breast) was > 100 µM and the GI50 (SNB-19 CNS) was 20 µM. For the same compound, the TGI (SNB-19 CNS) was > 100 µM, the GI50 (CCRF-CEM leukemia) was 2.21 µM and the TGI (CCRF-CEM leukemia) was > 100 µM. The GI50 (HL-60(TB) leukemia) was > 100 µM, the TGI (HL-60(TB) leukemia) was > 100 µM and the GI50 (KM12 colon) was 9.64 µM. The TGI (KM12 colon) was > 100 µM, the GI50 (NCI-H23 lung) was 28.8 µM and the TGI (NCI-H23 lung) was > 100 µM.
